# Assay results: patent publication US11371994B2, “Phosphorylated Akt-specific capture agents, compositions, and methods of using and making” (California Institute of Technology, priority 2013, dated 2022)
# Square brackets hold non-standard residues; d marks the D form. Ends that are not written are not given here. dPra = C#CC[C@@H](N)C(=O)O
# Target: T1, Akt (Homo sapiens, UniProt P31751)
# T1 construct: endogenous in cells; host or cells: OVCAR3
# Assay: OVCAR3 lysate pull-down (immunoprecipitation) assay
# Format: binding
# Conditions: eluents stained with pan-Akt antibody
# Experimental: OVCAR3 cells (ATCC) were grown in RPMI-1640 media containing 20% fetal bovine serum. Passage three cells were grown to ˜80% confluence. Cells were lysed with lysis buffer (10 mM Tris-Cl (pH=7.5), 100 mM NaCl, 1% (v/v) Triton X-100, 0.1% SDS (w/v), 0.5% deoxycholate, 1 mM DTT, 1 mM EDTA, 1× PhosStop phosphatase inhibitors (Roche), 1× Complete protease inhibitors (Roche)) and the amount of protein measured using BCA Protein Assay Kit (Pierce Biotechnologies, Inc). Streptavidin-agarose resin solution (EMD) was swelled in TBST (25 mM tris chloride, pH=7.5, 150 mM NaCl, 0.05% Tween-20). Each of the biotinylated ligands was immobilized on the Streptavidin-agarose resin by adding 7.2 μL of 1 mM ligand stock (DMSO) to 10 μL of the swelled streptavidin-agarose resin. For the blank control, the resin was treated with 7.2 μL of 1 mM biotinylated acyl glycine. […] After shaking overnight at 4° C., 50 μM D-biotin was added to the resin to block any remaining sites. The resin was washed with TBST five times, for fifteen minutes each. The resin was then swelled in binding buffer for two hours. To each of the immobilized ligands, 200 μL OVCAR3 cell lysate (1.9 mg/ml) was added. The tubes were shaken at 4° C. for 18 hours. The beads were extensively washed, three times for fifteen minutes in binding buffer, three times (fifteen minutes) in TBST, and three times (fifteen minutes) in TBS to remove unbound proteins. The resin bound proteins were eluted by adding 40 μL of 2×SDS-PAGE sample loading buffer (BioRad) and heating at 95° C. for five minutes. A 1:10 diluted sample of lysate in sample loading buffer was prepared by mixing 1 μL of the sample with 9 μL sample loading buffer and denaturing the sample by heating at 95° C. for five minutes. 10 μL of each sample was loaded on a 12% SDS-PAGE gels (BioRad) and run for 80 minutes at 110 volts. Three identical gels were loaded and run at the same time. One gel was used for Coomassie staining with Coomassie Fluor Orange Protein Gel Stain (Molecular Probes) following the manufacturer's protocol. The two other gels were transferred to nitrocellulose membranes by the semidry transfer method, blocked for two hours at 4° C. with 5% non-fat milk, and treated overnight at 4° C. with a 1:1000 dilution of pan-Akt rabbit monoclonal antibody (Cell Signaling Technology) and a 1:1000 dilution of pS473 Akt rabbit monoclonal antibody (Cell Signaling Technology), respectively, in 0.5% non-fat milk. The membranes were washed and treated for an hour with a 1:10,000 dilution of monoclonal mouse anti-rabbit-HRP secondary antibody (Cell Signaling Technology) in 0.5% milk. After five washes of five minutes each with TBST and one wash of five minutes with TBS, the blots were developed with West Dura ECL substrate (Thermo Scientific) and imaged on film.
# T1 sequence (P31751 whole entry): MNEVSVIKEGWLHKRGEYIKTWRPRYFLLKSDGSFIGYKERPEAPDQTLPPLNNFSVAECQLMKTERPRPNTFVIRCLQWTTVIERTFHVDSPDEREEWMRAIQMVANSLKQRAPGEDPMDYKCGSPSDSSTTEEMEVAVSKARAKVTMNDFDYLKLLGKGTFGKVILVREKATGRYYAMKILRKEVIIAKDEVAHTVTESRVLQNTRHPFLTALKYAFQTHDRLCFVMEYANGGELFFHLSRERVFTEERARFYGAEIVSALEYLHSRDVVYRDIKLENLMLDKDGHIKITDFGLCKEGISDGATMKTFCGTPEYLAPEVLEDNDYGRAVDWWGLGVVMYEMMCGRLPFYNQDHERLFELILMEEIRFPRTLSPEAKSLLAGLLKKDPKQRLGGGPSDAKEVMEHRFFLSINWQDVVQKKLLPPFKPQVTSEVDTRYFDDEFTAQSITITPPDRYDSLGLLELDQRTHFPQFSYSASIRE
row,immunoprecipitation of Akt from OVCAR3 cell lysate,Compound
1,immunoprecipitate Akt2 from OVCAR3 cells,N-tri2: N terminal triligand candidate: (D-Pra)-ssGry clicked to anchor-3N (peptide 1 [dW][dK][dV][dK][dL]; peptide 2 [dH][dN]G[dY][dF]; peptide 3 [dPra][dS][dS]G[dR][dY]; not fully specified (bridges); also: arms clicked by triazole to anchor-3N scaffold (not listed))
2,did not show any Akt pulldown,Bi6: biligand candidate with hnGGd-(D-Pra) as the 2° peptide arm (peptide 1 [dPra][dW][dK][dV][dK][dL]; peptide 2 [dH][dN]GG[dD][dPra]; not fully specified (bridges))

# Continued, compound first:
row,Compound,immunoprecipitation of Akt from OVCAR3 cell lysate
1,CC(=O)NC(CCCCn1cc(C[C@@H](NC(C)=O)C(=O)N[C@H](Cc2c[nH]c3ccccc23)C(=O)N[C@H](CCCCN)C(=O)N[C@@H](C(=O)N[C@H](CCCCN)C(=O)N[C@H](CC(C)C)C(N)=O)C(C)C)nn1)C(=O)NCCOCCOCCOCCC(=O)NCCNC(=O)CCCC[C@@H]1SC[C@@H]2NC(=O)N[C@@H]21 (stereo partly shown) [mono-L],sufficient selectivity to immunoprecipitate Akt from OVCAR3 cancer cell lysate
2,Bi5: biligand candidate with hnGii-(D-Pra) as the 2° peptide arm (peptide 1 [dPra][dW][dK][dV][dK][dL]; peptide 2 [dH][dN]G[dI][dI][dPra]; not fully specified (bridges)),did not show any Akt pulldown

# Same assay, conditions: eluents stained with pan-Akt antibody; listed as Bi2
row,Compound,immunoprecipitation of Akt from OVCAR3 cell lysate
1,CC(=O)NC(CCCCn1cc(C[C@@H](NC(=O)CCCCn2cc(C[C@@H](NC(=O)[C@@H](Cc3ccccc3)NC(=O)[C@@H](Cc3ccc(O)cc3)NC(=O)CNC(=O)[C@@H](CC(N)=O)NC(=O)[C@H](N)Cc3c[nH]cn3)C(=O)O)nn2)C(=O)N[C@H](Cc2c[nH]c3ccccc23)C(=O)N[C@H](CCCCN)C(=O)N[C@@H](C(=O)N[C@H](CCCCN)C(=O)N[C@H](CC(C)C)C(N)=O)C(C)C)nn1)C(=O)NCCOCCOCCOCCC(=O)NCCNC(=O)CCCC[C@@H]1SC[C@@H]2NC(=O)N[C@@H]21 (stereo partly shown) [bi-L],best candidate

# Same assay, conditions: eluents stained with pan-Akt antibody; listed as biligand
row,Compound,immunoprecipitation of Akt from OVCAR3 cell lysate
1,CC(=O)NC(CCCCn1cc(C[C@@H](NC(=O)CCCCn2cc(C[C@@H](NC(=O)[C@@H](Cc3ccccc3)NC(=O)[C@@H](Cc3ccc(O)cc3)NC(=O)CNC(=O)[C@@H](CC(N)=O)NC(=O)[C@H](N)Cc3c[nH]cn3)C(=O)O)nn2)C(=O)N[C@H](Cc2c[nH]c3ccccc23)C(=O)N[C@H](CCCCN)C(=O)N[C@@H](C(=O)N[C@H](CCCCN)C(=O)N[C@H](CC(C)C)C(N)=O)C(C)C)nn1)C(=O)NCCOCCOCCOCCC(=O)NCCNC(=O)CCCC[C@@H]1SC[C@@H]2NC(=O)N[C@@H]21 (stereo partly shown) [bi-L],higher selectivity to immunopreciptate Akt from OVCAR3 cell lysate

# Test system: mouse anti His6 antibody and anti mouse-alkaline phosphatase
# Assay: Elimination of peptide binders to antibody, on-bead BCIP colour test
# Format: binding
# Conditions: colour intensity of beads; clear beads are not background binders
# Experimental: Since a preclear screen was not performed against the mouse-Anti His6 antibody and the anti-mouse-alkaline phosphatase antibody, to eliminate peptide binders to the antibodies, all the dark colored peptide hits obtained in the earlier target screen were synthesized on Tentagel-S—NH2 resin. 10 beads of each sequence was taken in spinnex tubes, equilibrated in binding buffer, and then treated with a 1:1000 diluted solution of mouse anti His6 antibody (Abcam) for an hour at 4° C. Following three five minute washes with the binding buffer, a 1:10,000 diluted solution of anti mouse-alkaline phosphatase was added and the shaken for one hour at 4° C. The beads were washed three times for five minutes each with wash buffer 3, followed by three five minute washes with wash buffer 4. The beads were then developed in BCIP solution for thirty minutes and quenched with 0.1 N HCl. The color intensity of the different sequences is recorded in Table 5, along with the probability that the sequence is a binder to the protein and not a background binder (clear beads). The probability arises from the poor resolution of certain amino acid standards in the Edman sequencer during sequencing the hits from the N terminal triligand target screen.
row,Color,Compound
1,No color,"(D-Pra)-ssGry ([dPra][dS][dS]G[dR][dY]) [SEQ ID NO: 14, on-bead 3° peptide hit of N-tL screen]"
2,light,"SEQ ID NO: 61: on-bead peptide D-Pra-lfqfr, hit of N-tL screen ([dPra][dL][dF][dQ][dF][dR])"
3,medium,"SEQ ID NO: 65: on-bead peptide D-Pra-rnrfr, hit of N-tL screen ([dPra][dR][dN][dR][dF][dR])"
4,light,"SEQ ID NO: 52: on-bead peptide D-Pra-yvyrf, hit of N-tL screen ([dPra][dY][dV][dY][dR][dF])"
5,light,"SEQ ID NO: 53: on-bead peptide D-Pra-sfrrf, hit of N-tL screen ([dPra][dS][dF][dR][dR][dF])"
6,No color,"SEQ ID NO: 64: on-bead peptide D-Pra-rdrfr, hit of N-tL screen ([dPra][dR][dD][dR][dF][dR])"

# The next lines start with the compound.
row,Compound,Color
1,"SEQ ID NO: 60: on-bead peptide D-Pra-kfqfr, hit of N-tL screen ([dPra][dK][dF][dQ][dF][dR])",light
2,"(D-Pra)-yyrfG ([dPra][dY][dY][dR][dF]G) [SEQ ID NO: 13, on-bead 3° peptide hit of N-tL screen]",No color
3,"SEQ ID NO: 62: on-bead peptide D-Pra-kftfr, hit of N-tL screen ([dPra][dK][dF][dT][dF][dR])",light
4,"SEQ ID NO: 63: on-bead peptide D-Pra-lftfr, hit of N-tL screen ([dPra][dL][dF][dT][dF][dR])",light
5,"SEQ ID NO: 58: on-bead peptide D-Pra-rriyy, hit of N-tL screen ([dPra][dR][dR][dI][dY][dY])",dark

# Target: Akt2 (Homo sapiens, UniProt P31751)
# Sequence (P31751 whole entry): as above
# Assay: Single component ELISA, PCC agent as capture or detection agent (relative affinity)
# Format: binding
# Set-up: purchased Abcam
# Conditions: relative affinity; read-out: affinity by single-component immunoassay
# From the text: FIG. 23: A. ELISA assays in which the PCC Agents are utilized as either as surface-localized capture agents (for N-tL, C-tL) or as the detection agent (for mono-L, bi-L). Such assays provide relative affinity measurements, which are given as EC50 values in the key. […] C. C-tL distinguishes the full length Akt2 from isoform proteins Akt1 and Akt3. D. The 32 amino acid long C terminal fragment from Akt2, Akt1 and Akt3. The hydrophobic motif is highlighted in blue. pS refers to phospho-serine. […] F. Selectivity assays: Biotinylated ligands or biotinylated pS473 antibody is immobilized on streptavidin-agarose and treated with OVCAR3 cell lysate. The eluents are stained with a pan-Akt antibody or pS473 Akt antibody.
# 1.25 μM biotinylated ligand was prepared by diluting the 1 mM stock in binding buffer (25 mM tris chloride, pH=7.4, 150 mM NaCl, 0.1% BSA, 0.05% Tween 20). The prepared ligand solution or 0.125% DMSO in buffer (buffer control) was immobilized on a High Capacity Streptavidin 96 well plate (Thermo Scientific). After washing away the excess ligand, the plate was blocked overnight with 1% BSA/25 mM tris chloride, pH=7.4/150 mM NaCl, 0.05% Tween 20. 2.5 μM solutions of the His6 (SEQ ID NO:28) tagged target phosphopeptide epitope Akt2 amino acids 450-481, His6 (SEQ ID NO:28) tagged Akt1 amino acids 449-480, His6 (SEQ ID NO:28) tagged Akt3 amino acids 448-479 were added to each of the wells. Following three washes with the binding buffer, the plate was treated for an hour with a 1:1000 dilution of anti His6 (SEQ ID NO:28) mouse monoclonal antibody. A 1:10,000 dilution of goat anti mouse antibody-Horse Radish Peroxide conjugate in binding buffer was added to the wells. The plates were washed four times, five minutes each, with 0.05% Tween 20/TBS (25 mM tris chloride, pH=7.5, 150 mM NaCl) and once with TBS (25 mM tris chloride, pH=7.5, 150 mM NaCl). Color was developed by adding TMB substrate (KPL) to each well. The reaction was quenched with 0.5 M H2SO4. The A450 measured on a 96-well plate reader. The Net A450 was obtained by subtracting the absorbance value for the blank control (no immobilized ligand) from each of the triplicate values obtained for the ligand-epitope interaction. The selectivity assay with full length His6 (SEQ ID NO:28) tagged Akt1, Akt2 and Akt3 was performed following the same protocol, using 25 nM protein instead of 2.5 μM His6 tagged peptide epitope.
row,Compound,EC50 [nM]
1,CC(=O)NC(CCCCn1cc(C[C@@H](NC(=O)CCCCn2cc(C[C@@H](NC(=O)[C@@H](Cc3ccccc3)NC(=O)[C@@H](Cc3ccc(O)cc3)NC(=O)CNC(=O)[C@@H](CC(N)=O)NC(=O)[C@H](N)Cc3c[nH]cn3)C(=O)O)nn2)C(=O)N[C@H](Cc2c[nH]c3ccccc23)C(=O)N[C@H](CCCCN)C(=O)N[C@@H](C(=O)N[C@H](CCCCN)C(=O)N[C@H](CC(C)C)C(N)=O)C(C)C)nn1)C(=O)NCCOCCOCCOCCC(=O)NCCNC(=O)CCCC[C@@H]1SC[C@@H]2NC(=O)N[C@@H]21 (stereo partly shown) [bi-L],~1000
2,CC(=O)NC(CCCCn1cc(C[C@@H](NC(C)=O)C(=O)N[C@H](Cc2c[nH]c3ccccc23)C(=O)N[C@H](CCCCN)C(=O)N[C@@H](C(=O)N[C@H](CCCCN)C(=O)N[C@H](CC(C)C)C(N)=O)C(C)C)nn1)C(=O)NCCOCCOCCOCCC(=O)NCCNC(=O)CCCC[C@@H]1SC[C@@H]2NC(=O)N[C@@H]21 (stereo partly shown) [mono-L],~3000
